Data taken from PubChem BioAssay AID330 (DTP/NCI, 2004).
Where “and” joins values, the source holds several entries; their conditions need not be identical. Equal entries are not always repeated. Toxic doses and inconclusive results are not listed. How the source made its calls: active means survival T/C of 150% or more; inactive means T/C below 125% in these data.

System: P388 leukemia ip, CD2F1 mice, survival T/C
Experiment: NCI In Vivo Anticancer Drug Screen. Data for tumor model P388 Leukemia (intraperitoneal) in CD2F1 (CDF1) mice
Details: endpoint: median survival time, higher = longer survival
Outline: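 Mice carrying the transplanted tumor received test compound or vehicle. Survival was recorded in each group, and the value is the treated-group measurement divided by that of the vehicle-treated control group.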

[1] = dose: 25.0 mg/kg/injection, schedule: Q01DX009 (ip), vehicle: saline with Tween-80
[2] = dose: 25.0 mg/kg/injection, schedule: Q04DX003 (ip), vehicle: saline with Tween-80
[3] = dose: 50.0 mg/kg/injection, schedule: Q01DX009 (ip), vehicle: saline with Tween-80
[4] = dose: 50.0 mg/kg/injection, schedule: Q04DX003 (ip), vehicle: saline with Tween-80
[5] = dose: 100.0 mg/kg/injection, schedule: Q01DX009 (ip), vehicle: saline with Tween-80
[6] = dose: 100.0 mg/kg/injection, schedule: Q04DX003 (ip), vehicle: saline with Tween-80
[7] = dose: 120.0 mg/kg/injection, schedule: Q01DX005 (ip), vehicle: saline with Tween-80
[8] = dose: 240.0 mg/kg/injection, schedule: Q01DX005 (ip), vehicle: saline with Tween-80
[9] = dose: 50.0 mg/kg/injection, schedule: Q01DX009 (ip), vehicle: saline
[10] = dose: 100.0 mg/kg/injection, schedule: Q01DX009 (ip), vehicle: saline
[11] = dose: 200.0 mg/kg/injection, schedule: Q04DX003 (ip), vehicle: saline with Tween-80
[12] = dose: 400.0 mg/kg/injection, schedule: Q04DX003 (ip), vehicle: saline with Tween-80
[13] = dose: 200.0 mg/kg/injection, schedule: Q01DX009 (ip), vehicle: saline
[14] = dose: 60.0 mg/kg/injection, schedule: Q01DX005 (ip), vehicle: saline
[15] = dose: 120.0 mg/kg/injection, schedule: Q01DX005 (ip), vehicle: saline
[16] = dose: 240.0 mg/kg/injection, schedule: Q01DX005 (ip), vehicle: saline
[17] = dose: 6.25 mg/kg/injection, schedule: Q01DX009 (ip), vehicle: saline with Tween-80
[18] = dose: 12.5 mg/kg/injection, schedule: Q01DX009 (ip), vehicle: saline with Tween-80

Measured: T/C

O=C(O)c1c(Cl)cccc1Cl
inactive: [1] 109 % of control | [2] 100 % of control | [3] 100 % of control | [4] 95 % of control | [5] 100 % of control | [6] 95 % of control

O=C(Nc1ccccc1F)N(CCO)C1CCCCC1
inactive: dose: 60.0 mg/kg/injection, schedule: Q01DX005 (ip), vehicle: saline with Tween-80 93 % of control | [7] 93 % of control | [8] 98 % of control

COc1cc2c(-c3c4c5c(cc(OC)c(OC)c5c5cc(OC)c(OC)cc35)CCN4C)c3c4c(cc(OC)c(OC)c4c2cc1OC)CCN3C
inactive: dose: 100.0 mg/kg/injection, schedule: Q04DX002 (ip), vehicle: saline 101 % of control | dose: 200.0 mg/kg/injection, schedule: Q04DX002 (ip), vehicle: saline 102 % of control | dose: 400.0 mg/kg/injection, schedule: Q04DX002 (ip), vehicle: saline 101 % of control

N=C(N)c1cccc([N+](=O)[O-])c1
inactive: [9] 98 % of control | [10] 96 % of control

COc1ccc(Cc2ccc(OC)c(OC)c2)cc1OC
inactive: [2] 99 % of control | [4] 99 % of control | [6] 113 % of control | [11] 109 % of control | [12] 120 % of control

O=C1OC(=O)C(c2ccccc2)(c2ccccc2)C1c1ccccc1 (stereo unspecified)
inactive: [6] 112 % of control | [11] 119 % of control | [12] 112 % of control

C/C=C/CC1(CC)C(=O)NC(=S)NC1=O
inactive: [3] 100 % of control

O=C1C=CC(=O)[C@H]2CC=C3OC4OC5(CCCCC5)OC4[C@H]3[C@@H]12 (stereo partly specified)
inactive: [7] 94 % of control | [8] 97 % of control

CC1=NN(c2ccccc2)C(=O)C1N=Nc1cc([N+](=O)[O-])cc(S(=O)(=O)O)c1O.CC1=NN(c2ccccc2)C(=O)C1N=Nc1cc([N+](=O)[O-])cc(S(=O)(=O)O)c1O.[Cr] (stereo unspecified)
inactive: dose: 25.0 mg/kg/injection, schedule: Q01DX009 (ip), vehicle: saline 106 % of control and 108 % of control | [9] 111 % of control and 112 % of control and 115 % of control | [10] 119 % of control and 124 % of control (2×) | [13] 101 % of control and 103 % of control and 115 % of control

COC(=O)[C@H]1C[C@@H](N)[C@H](O)[C@@H]1O
inactive: [14] 102 % of control | [15] 101 % of control | [16] 100 % of control

COC(=O)c1nc(=S)[nH]c(C(=O)OC)c1C(=O)c1ccccn1
inactive: dose: 60.0 mg/kg/injection, schedule: Q01DX005 (ip), vehicle: Klucel + Tween-80 105 % of control | dose: 120.0 mg/kg/injection, schedule: Q01DX005 (ip), vehicle: Klucel + Tween-80 95 % of control | dose: 240.0 mg/kg/injection, schedule: Q01DX005 (ip), vehicle: Klucel + Tween-80 95 % of control

Cc1nc(Nc2ccccc2C)c2ccsc2n1
inactive: dose: 50.0 mg/kg/injection, schedule: Q01DX005 (ip), vehicle: Klucel (hydroxypropylcellulose) (HPC) 91 % of control | dose: 100.0 mg/kg/injection, schedule: Q01DX005 (ip), vehicle: Klucel (hydroxypropylcellulose) (HPC) 87 % of control

OCc1c(Cl)nc2sccn12
inactive: dose: 25.0 mg/kg/injection, schedule: Q01DX001 (ip), vehicle: Klucel (hydroxypropylcellulose) (HPC) 109 % of control | dose: 50.0 mg/kg/injection, schedule: Q01DX001 (ip), vehicle: Klucel (hydroxypropylcellulose) (HPC) 105 % of control | dose: 100.0 mg/kg/injection, schedule: Q01DX001 (ip), vehicle: Klucel (hydroxypropylcellulose) (HPC) 93 % of control and 97 % of control | dose: 400.0 mg/kg/injection, schedule: Q01DX001 (ip), vehicle: Klucel (hydroxypropylcellulose) (HPC) 92 % of control

N#Cc1nccnc1Cl
inactive: dose: 25.0 mg/kg/injection, schedule: Q01DX009 (ip), vehicle: other 95 % of control | dose: 25.0 mg/kg/injection, schedule: Q04DX003 (ip), vehicle: other 100 % of control | dose: 50.0 mg/kg/injection, schedule: Q01DX009 (ip), vehicle: other 100 % of control | dose: 50.0 mg/kg/injection, schedule: Q04DX003 (ip), vehicle: other 100 % of control | dose: 100.0 mg/kg/injection, schedule: Q01DX009 (ip), vehicle: other 100 % of control | dose: 100.0 mg/kg/injection, schedule: Q04DX003 (ip), vehicle: other 100 % of control

CCC(C)(S)CN (stereo unspecified)
inactive: dose: 100.0 mg/kg/injection, schedule: Q01DX001 (ip), vehicle: saline 90 % of control | dose: 200.0 mg/kg/injection, schedule: Q01DX001 (ip), vehicle: saline 90 % of control | dose: 400.0 mg/kg/injection, schedule: Q01DX001 (ip), vehicle: saline 92 % of control

CSC(C=C1C=CN(CC(=O)c2ccccc2)C=C1)=C(C#N)C#N
inactive: dose: 25.0 mg/kg/injection, schedule: Q04DX002 (ip), vehicle: saline with Tween-80 97 % of control | dose: 50.0 mg/kg/injection, schedule: Q04DX002 (ip), vehicle: saline with Tween-80 102 % of control | dose: 100.0 mg/kg/injection, schedule: Q04DX002 (ip), vehicle: saline with Tween-80 99 % of control

Cc1ccc([NH-])c(C(=O)O)c1.Cc1ccc([NH-])c(C(=O)O)c1.[Cu+2]
inactive: dose: 12.5 mg/kg/injection, schedule: Q01DX005 (ip), vehicle: saline with Tween-80 96 % of control | dose: 25.0 mg/kg/injection, schedule: Q01DX005 (ip), vehicle: saline with Tween-80 100 % of control | dose: 50.0 mg/kg/injection, schedule: Q01DX005 (ip), vehicle: saline with Tween-80 94 % of control

COc1ccc(C(O)Cc2cc(OC)c(OC)c(OC)c2)cc1O (stereo unspecified)
inactive: dose: 31.25 mg/kg/injection, schedule: Q01DX009 (ip), vehicle: saline + Tween-80 + alcohol 105 % of control | dose: 62.5 mg/kg/injection, schedule: Q01DX009 (ip), vehicle: saline + Tween-80 + alcohol 98 % of control | dose: 125.0 mg/kg/injection, schedule: Q01DX009 (ip), vehicle: saline + Tween-80 + alcohol 89 % of control | dose: 250.0 mg/kg/injection, schedule: Q01DX009 (ip), vehicle: saline + Tween-80 + alcohol 91 % of control

C=CCOc1ccc2ccc(=O)oc2c1
inactive: [4] 109 % of control | [6] 104 % of control | [11] 101 % of control

CN1CCC(OC(N)=O)CC1
inactive: [10] 100 % of control | [13] 100 % of control | dose: 400.0 mg/kg/injection, schedule: Q01DX009 (ip), vehicle: saline 104 % of control

C=CC(=NC(C)(C)C)Nc1ccccc1
inactive: [17] 101 % of control | [18] 105 % of control | [1] 108 % of control

CN(C)CC(CN(C)C)C(=O)/C=C/c1ccc2c(c1)OCO2
inactive: dose: 0.78 mg/kg/injection, schedule: Q01DX005 (ip), vehicle: Klucel (hydroxypropylcellulose) (HPC) 112 % of control | dose: 1.56 mg/kg/injection, schedule: Q01DX005 (ip), vehicle: Klucel (hydroxypropylcellulose) (HPC) 104 % of control | dose: 3.12 mg/kg/injection, schedule: Q01DX005 (ip), vehicle: Klucel (hydroxypropylcellulose) (HPC) 104 % of control

CCOC(=O)c1ccc(NC(=O)O/N=C/c2ccncc2)cc1
inactive: [17] 88 % of control | [18] 112 % of control | [1] 88 % of control | [3] 93 % of control | [5] 94 % of control | dose: 200.0 mg/kg/injection, schedule: Q01DX009 (ip), vehicle: saline with Tween-80 90 % of control

COC1OC(CO)C(N(C)C(C)=O)C1O (stereo unspecified)
inactive: [14] 120 % of control | [15] 115 % of control | [16] 106 % of control
